According to patent US6660755B2, “Substituted diaryl or diheteroaryl methans, ethers and amines having retinoid agonist, antagonist or inverse agonist type biological activity” (Allergan, Inc., priority 1997, dated 2003):

Columns and labels:
RARα [1] = molecular target: RARα (Homo sapiens, UniProt P10276, E106G/G107S/G110V); experiment: PGR assay (RAR-P-GR holoreceptor transactivation), RARα; assay type: cell-based; settings: for Emax: 18 h; for EC50: PGR assay (transactivation), CV-1 cells, luciferase reporter
Text: (§1) A holoreceptor transactivation assay and a ligand binding assay which measure the antagonist/agonist like activity of the compounds of the invention, or their ability to bind to the several retinoid receptor subtypes, respectively, are described in published PCT Application No. WO WO93/11755 (particularly on pages 30-33 and 37-41) published on Jun. 24, 1993, the specification of which is also incorporated herein by reference. A detailed experimental procedure for holoreceptor transactivations has been described by Heyman et al. Cell 1992, 68, 397-406; Allegretto et al. J. Biol. Chem. 1993 268, 26625-26633, and Mangelsdorf et al. The Retinoids: Biology, Chemistry and Medicine, pp 319-349, Raven Press Ltd., New York, which are expressly incorporated herein by reference. The results obtained in this assay are expressed in EC50 numbers, as they are also in the chimeric receptor transactivation assay. The results of ligand binding assay are expressed in Kd numbers. (See Cheng et al. Biochemical Pharmacology 22, 3099-3108, expressly incorporated herein by reference.) Still another transactivation assay, the “PGR assay” is described in the publication Klein et al. J. Biol. Chem. 1996, 271, 22692-22696, which is expressly incorporated herein by reference, and a detailed description is also provided below. The results of the PGR assay are also expressed in EC50 numbers (nanomolar concentration).
RAR-P-GR holoreceptor Transactivation Assay
CV-1 cells (4×10^5 cells/well) were transiently transfected with the luciferase reporter plasmid MTV-4(R5G)-Luc (0.7 μg/well) containing four copies of the R5G retinoid DNA response element along with the RXRα expression plasmid pRS-hRXRa (0.1 μg/well) and one of the RAR-P-GR expression plasmids (0.05 μg/well) in 12 well plates via calcium phosphate precipitation Chen et al. Mol. Cell. Biol. 1987, 7, 2745-2752 as described by Klein et al. J. Biol. Chem. 1996, 271, 22692, referenced above. The three different RAR-P-GR expression plasmids, pRS-RARα-P-GR, pcDNA3-RARβ-P-GR and pcDNA3-RARγ-P-GR, express RARα, RARβ and RARγ receptors, respectively, which contain modified DNA binding domains such that their “P-boxes” have been altered to that of the glucocorticoid receptor. These RAR-P-GR receptors bind to DNA as heterodimeric complexes with RXR. Specifically, the RAR-P-GR receptors bind retinoic acid response elements designated R5G, comprised of two RAR half sites (nucleotide sequence 5′-GGTTCA-3′) separated by 5 base pairs in which the 3′-half site has been modified to that of a glucocorticoid receptor half site, 5′-AGAACA-3′. To allow for various in transfection efficiency a β-galactosidase expression plasmid (0.01 μg/well) was used as an internal control. Alternatively, the assay was performed in a 96-well microtiter plate format (5000 cells/well) in a manner which was identical to that described above except ⅕ of the amount of the DNA-calcium phosphate precipitant (20 μl instead of 100 Al) was applied to each well. Eighteen hours after introduction of the DNA precipitants, cells were rinsed with phosphate buffered saline (PBS) and fed with D-MEM (Gibco-BRL) containing 10% activated charcoal extracted fetal bovine serum (Gemini Bio-Products). After rinsing with PBS cells were lysed with luciferase activity was measured as previously described in de Wet Mol. Cell. Biol. 1987, 7, 725-737. Luciferase values represent the mean±SEM of triplicate determinations normalized to β-galactosidase activity. The results of the PGR assay are also expressed in EC50 numbers (nanomolar concentration).

RARα [2] = molecular target: T1, RARα (Homo sapiens, UniProt P10276); experiment: Ligand binding assay, RARα
T1 sequence (P10276 1-462): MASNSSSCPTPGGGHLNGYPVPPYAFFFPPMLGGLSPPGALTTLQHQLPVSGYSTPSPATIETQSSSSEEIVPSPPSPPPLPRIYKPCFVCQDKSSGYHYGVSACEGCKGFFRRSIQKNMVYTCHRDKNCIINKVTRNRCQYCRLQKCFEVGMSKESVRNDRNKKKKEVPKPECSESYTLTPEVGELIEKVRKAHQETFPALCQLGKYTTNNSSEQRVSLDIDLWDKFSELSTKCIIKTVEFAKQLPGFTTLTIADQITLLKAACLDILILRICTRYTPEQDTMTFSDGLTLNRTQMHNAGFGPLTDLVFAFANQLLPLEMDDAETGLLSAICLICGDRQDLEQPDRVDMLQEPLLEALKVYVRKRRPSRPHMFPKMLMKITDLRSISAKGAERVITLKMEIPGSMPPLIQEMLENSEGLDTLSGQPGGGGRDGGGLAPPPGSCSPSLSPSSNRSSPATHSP
Text: as §1

RARγ = molecular target: T2, RARγ (Homo sapiens, UniProt P13631); experiment: Ligand binding assay, RARγ
T2 sequence (P13631 1-454): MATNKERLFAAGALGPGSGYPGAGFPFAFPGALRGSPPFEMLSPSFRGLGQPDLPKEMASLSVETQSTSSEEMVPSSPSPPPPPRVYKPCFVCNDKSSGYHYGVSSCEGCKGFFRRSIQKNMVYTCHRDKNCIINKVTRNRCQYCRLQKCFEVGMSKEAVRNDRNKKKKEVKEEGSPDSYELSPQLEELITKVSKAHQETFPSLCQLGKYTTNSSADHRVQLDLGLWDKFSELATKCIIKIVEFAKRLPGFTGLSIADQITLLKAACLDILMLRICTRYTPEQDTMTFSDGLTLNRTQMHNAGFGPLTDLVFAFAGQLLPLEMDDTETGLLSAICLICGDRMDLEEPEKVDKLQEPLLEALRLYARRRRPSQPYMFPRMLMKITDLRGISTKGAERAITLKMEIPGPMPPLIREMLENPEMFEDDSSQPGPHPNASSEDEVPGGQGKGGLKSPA
Text: as §1

RARβ = molecular target: T3, RARβ (Homo sapiens, UniProt P10826); experiment: Ligand binding assay, RARβ; settings: read-out: Kd RABβ
T3 sequence (P10826 1-455): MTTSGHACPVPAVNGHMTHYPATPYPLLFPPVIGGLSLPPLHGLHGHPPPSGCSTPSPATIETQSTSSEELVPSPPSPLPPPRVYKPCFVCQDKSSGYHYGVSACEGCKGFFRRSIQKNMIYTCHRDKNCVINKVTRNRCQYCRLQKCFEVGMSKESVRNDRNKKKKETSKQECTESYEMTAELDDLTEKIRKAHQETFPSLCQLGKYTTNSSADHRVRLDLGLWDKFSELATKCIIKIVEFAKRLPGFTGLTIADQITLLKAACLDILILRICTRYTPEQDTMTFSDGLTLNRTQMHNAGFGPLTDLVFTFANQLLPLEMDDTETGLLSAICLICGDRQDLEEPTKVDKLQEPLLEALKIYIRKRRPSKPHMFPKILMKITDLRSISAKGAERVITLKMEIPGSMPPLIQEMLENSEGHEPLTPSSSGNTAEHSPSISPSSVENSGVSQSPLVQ
Text: as §1

[3] = efficiency relative to all-trans-retinoic acid, PGR assay

Sequence of RARα (Homo sapiens, UniProt P10276, E106G/G107S/G110V) (P10276 whole entry E106G/G107S/G110V): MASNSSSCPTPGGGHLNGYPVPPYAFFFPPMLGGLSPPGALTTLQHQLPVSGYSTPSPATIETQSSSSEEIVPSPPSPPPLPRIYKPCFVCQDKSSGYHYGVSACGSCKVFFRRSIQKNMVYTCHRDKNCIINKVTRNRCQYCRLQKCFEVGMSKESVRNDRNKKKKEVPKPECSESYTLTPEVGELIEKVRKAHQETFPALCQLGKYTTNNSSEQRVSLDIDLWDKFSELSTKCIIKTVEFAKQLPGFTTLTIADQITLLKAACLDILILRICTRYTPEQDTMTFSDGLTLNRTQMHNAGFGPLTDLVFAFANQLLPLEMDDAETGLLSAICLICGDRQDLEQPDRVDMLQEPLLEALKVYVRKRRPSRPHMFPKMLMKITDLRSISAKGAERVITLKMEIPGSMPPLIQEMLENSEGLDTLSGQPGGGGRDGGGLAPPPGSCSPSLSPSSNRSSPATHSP
Sequence of RARα (Homo sapiens, UniProt P10276, E106G/G107S/G110V) (P19793 whole entry, further chain): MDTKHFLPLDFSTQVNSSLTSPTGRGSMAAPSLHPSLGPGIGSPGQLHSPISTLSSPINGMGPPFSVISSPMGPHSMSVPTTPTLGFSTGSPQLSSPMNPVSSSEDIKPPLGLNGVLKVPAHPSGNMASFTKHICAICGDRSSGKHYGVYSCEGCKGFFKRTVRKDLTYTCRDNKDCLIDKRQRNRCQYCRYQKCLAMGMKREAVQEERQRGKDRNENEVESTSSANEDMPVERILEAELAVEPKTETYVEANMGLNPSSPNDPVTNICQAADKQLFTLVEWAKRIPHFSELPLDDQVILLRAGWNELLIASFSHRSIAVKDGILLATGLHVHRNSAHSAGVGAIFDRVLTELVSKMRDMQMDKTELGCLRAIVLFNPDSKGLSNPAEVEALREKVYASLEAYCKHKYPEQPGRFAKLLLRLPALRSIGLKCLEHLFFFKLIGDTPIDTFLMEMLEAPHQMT

Emax (RARα [1]; [3]) [%]	EC50 (RARα [1]) [nM]	Kd (RARα [2]) [nM]	Kd (RARγ) [nM]	Kd (RARβ) [nM]	% Efficiency RARα (RARα [1]; [3]) [%]	SMILES
0	> 10000	24	112	34	–	CC(C)(C)c1ccc(C#Cc2ccc(C(=O)O)c(F)c2)cc1Oc1ccc([N+](=O)[O-])cc1 [Compound 11, 4-[[4′-tert-Butyl-3′-(4″-nitro)phenoxy]phenylethynyl]-2-fluoro-benzoic Acid]
0	> 10000	15	66	14	–	COC(=O)c1ccc(Oc2cc(C#Cc3ccc(C(=O)O)c(F)c3)ccc2C(C)(C)C)cc1 [Compound 10, 4-[[4′-tert-Butyl-3′-(4″-carbomethoxy)phenoxy]phenylethynyl]-2-fluorobenzoic Acid]
–	> 10000	1050	317	113	0	CC(C)(C)c1ccc(C#Cc2ccc(C(=O)O)cn2)cc1Oc1ccc(C(F)(F)F)cc1 [Compound 6, 6-[[4′-tert-Butyl-3′-(4″-trifluomethyl)phenoxy]phenylethynyl]-3-nicotinic Acid]
0	> 10000	11	5690	4570	–	CC(C)(C)c1ccc(C(=O)Nc2ccc(C(=O)O)c(F)c2)cc1Oc1ccc(C(F)(F)F)cc1 [Compound 13, 4-[[4′-tert-Butyl-3′-(4″-trifluoromethyl)phenoxy]benzoylamino]-2-fluorobenzoic Acid]
